Where a name gives a salt, the structure may show the parent alone.
What was measured:
5-HT3 receptors = target: T1, 5-HT3 receptors (Mus musculus, UniProt P23979); experiment: Bezold-Jarisch assay in vivo: inhibition of serotonin induced bradycardia; settings: read-out: % Inhibition @ dose of test substance (p.o.); for inhibition at 3 mg/kg: 3 mg/kg p.o.; for inhibition at 3 mg/kg / inhibition at 1 mg/kg: 5-HT (0.1 mg/kg IV)-induced bradycardia 60 min later; for inhibition at 1 mg/kg: 1 mg/kg p.o.
T1 construct: from tissue; host or cells: whole animal: male or female CD-1(Crl.) mice
T1 sequence (P23979 24-489): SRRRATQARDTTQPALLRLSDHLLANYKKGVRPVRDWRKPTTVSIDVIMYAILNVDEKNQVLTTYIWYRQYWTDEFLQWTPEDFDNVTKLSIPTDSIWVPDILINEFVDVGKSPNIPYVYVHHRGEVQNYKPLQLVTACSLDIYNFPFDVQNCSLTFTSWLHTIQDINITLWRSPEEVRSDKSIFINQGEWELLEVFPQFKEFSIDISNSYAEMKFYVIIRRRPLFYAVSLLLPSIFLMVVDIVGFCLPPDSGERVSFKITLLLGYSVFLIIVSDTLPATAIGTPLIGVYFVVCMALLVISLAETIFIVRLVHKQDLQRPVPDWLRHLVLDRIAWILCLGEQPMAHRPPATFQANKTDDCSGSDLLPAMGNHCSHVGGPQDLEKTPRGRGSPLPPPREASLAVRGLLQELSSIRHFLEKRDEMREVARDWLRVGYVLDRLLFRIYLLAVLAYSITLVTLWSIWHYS
Method: Bezold-Jarisch Assay in vivo. […] Arch. Int. Pharmacodyn. 277: 235-252, 1985]. Test substances and vehicle [2% Tween 80] were each administered orally (0.3 to 3 mg/kg) to a group of 5 male or female CD-1(Crl.) mice each weighing 24±2 g. A dosing volume of 10 mL/kg was used. Sixty minutes later, 5-HT (0.1 mg/kg IV)-induced bradycardia was recorded in urethane (2225-2500 mg/kg IP, given 10 minutes before 5-HT)-anesthetized animals.
In vivo 5-HT3 Antagonism in the mouse (Bradycardia Reflex)

5-HT3 [1] = target: T2, 5-HT3 (Homo sapiens, UniProt P46098); experiment: Compound affinity for the human 5-HT3 receptor (Assay B), SPA radioligand binding with [9-methyl-3H]BRL-43694; design: purchased Perkin Elmer
T2 sequence (P46098 24-478): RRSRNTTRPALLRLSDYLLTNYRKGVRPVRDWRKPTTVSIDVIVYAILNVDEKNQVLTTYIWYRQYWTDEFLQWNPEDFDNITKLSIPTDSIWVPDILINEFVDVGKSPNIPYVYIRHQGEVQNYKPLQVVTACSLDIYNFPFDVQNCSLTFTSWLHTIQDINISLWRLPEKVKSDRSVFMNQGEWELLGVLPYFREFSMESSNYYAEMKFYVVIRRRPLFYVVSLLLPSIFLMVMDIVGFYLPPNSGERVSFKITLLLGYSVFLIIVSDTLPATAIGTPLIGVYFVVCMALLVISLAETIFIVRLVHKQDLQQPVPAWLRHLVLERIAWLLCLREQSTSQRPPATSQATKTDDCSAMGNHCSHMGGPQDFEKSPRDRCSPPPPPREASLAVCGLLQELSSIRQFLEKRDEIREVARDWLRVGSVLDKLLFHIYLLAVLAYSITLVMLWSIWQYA
Summary of the method: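 Ten competitor concentrations in duplicate; specific binding (total minus nonspecific) fitted for IC50, converted to Ki by Cheng-Prusoff.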

5-HT3 [2] = target: T2, 5-HT3; experiment: Compound affinity for the human 5-HT3 receptor (Assay A), [3H]-GR65630 radioligand binding; design: host or cells: N1E-155 cell lines (so in the source); settings: annotated (A): Assay A
Method: Compound Affinity for the human 5-HT3 Receptor (Assay A)
Compounds were tested by MDS Pharma Services—Taiwan Ltd., 158 Li-The Road, Peitou, Taipei, Taiwan 112 R.O.C. In order to evaluate the relative affinity of the various compounds for the human 5-HT3 receptor, N1E-155 cell lines were developed to express the target protein. For binding, these cells were homogenized, centrifuged and washed with buffer (20 mM HEPES, 150 mM NaCl, pH 7.4) then suspended in 0.5 mL of buffer and [3H]-GR65630 added at a concentration of 3.5×10^-10 M. An initial single concentration of 10^-7 M of the test compound was then added. Incubation was carried out at room temperature for 60 minutes at 25° C. then was terminated by rapid removal of the incubation medium. Radioactivity was assessed using liquid scintillation spectrophotometry after exposure to scintillation cocktail for at least three hours. […] Ki values were then calculated from the Cheng-Prusoff equation. In all of the above binding studies the non-specific determinant was MDL-72222 (1.0 μM).

5-HT3 [3] = target: T2, 5-HT3; experiment: 5-HT3 inhibitor screen with potency threshold (not further specified); assay type: binding
[4] = Assay B (method B unless otherwise annotated), read-out: 5-HT3 Ki

Structure (SMILES)	Ki (5-HT3 [1]) [nM]	Ki (5-HT3 [1]; [4]) [nM]	other results
Nc1nc2c(C(=O)NC3CN4CCC3CC4)cc(F)cc2o1 [Example 116, (S)—N-(Quinulidin-8-yl)-2-amino-6-fluorobenzoxazole-4-carboxamide Hydrochloride]	9.4		inhibition at 3 mg/kg (5-HT3 receptors): 97%
CSc1nc2c(C(=O)N[C@H]3C[C@H]4CCC[C@@H](C3)N4C)cccc2o1 [Example 13, Endo-N-(9-Methyl-9-azabicyclo[3.3.1]non-3-yl)-2-methylthiobenzoxazole-4-carboxamide Hydrochloride]			Ki (5-HT3 [2]): 4.6 nM
Nc1nc2c(C(=O)NC3CN4CCC3CC4)cccc2o1 [Example 93, (S)—N-(Quinulidin-8-yl)-2-aminobenzoxazole-4-carboxamide Hydrochloride]	12.1		inhibition at 3 mg/kg (5-HT3 receptors): 85%
C[C@H]1COC[C@H](C)N1c1nc2c(C(=O)NC3CC4CCCC(C3)N4C)cccc2o1 (stereo partly drawn) [Example 75, Endo-N-(9-Methyl-9-azabicyclo[3.3.1]nonan-3-yl)-2-((3S,5S)-3,5-dimethylmorpholino)benzoxazole-4-carboxamide Hydrochloride]	0.59		inhibition at 1 mg/kg (5-HT3 receptors): 98%
CSc1nc2c(C(=O)N[C@@H]3CN4CCC3CC4)cccc2o1 [Example 14, (S)—N-(quinuclidine-8-yl)-2-(methylthio)benzoxazole-4-carboxamide Hydrochloride]			Ki (5-HT3 [2]): 2.6 nM
C[C@@H]1CNC[C@H](C)N1c1nc2c(C(=O)NC3CC4CCCC(C3)N4C)cccc2o1 (relative stereo) [Example 50, Endo-N-(9-Methyl-9-azabicyclo[3.3.1]nonan-3-yl)-2-((2S*,6R*)-2,6-dimethylpiperazin-1-yl)benzoxazole-4-carboxamide Hydrochloride]	13.6		inhibition at 3 mg/kg (5-HT3 receptors): 80%
C[C@H]1CN(C)CCN1c1nc2c(C(=O)NC3CC4CCCC(C3)N4C)cccc2o1 (stereo partly drawn) [Example 55, Endo-N-(9-Methyl-9-azabicyclo[3.3.1]nonan-3-yl)-2-((S)-2,4-dimethylpiperazin-1-yl)benzoxazole-4-carboxamide Hydrochloride]	28.8		level of potency established as the threshold for the screen (5-HT3 [3]): has not exhibited the level of potency established as the threshold for the screen
Nc1nc2c(C(=O)NC3CN4CCC3CC4)cc(Cl)cc2o1 (stereo not drawn) [Example 103, Hydrochloride]	5.1		inhibition at 3 mg/kg (5-HT3 receptors): 97%
C[C@H]1COCCN1c1nc2c(C(=O)NC3CC4CCCC(C3)N4C)cccc2o1 (stereo partly drawn) [Example 49, Endo-N-(9-Methyl-9-azabicyclo[3.3.1]nonan-3-yl)-2-((S)-3-methylmorpholino)benzoxazole-4-carboxamide Hydrochloride]			inhibition at 1 mg/kg (5-HT3 receptors): 86%
CN(C)c1nc2c(C(=O)N[C@@H]3CN4CCC3CC4)cccc2o1 [Example 8, (S)—N-(quinuclidine-8-yl)-2-(dimethylamino)benzoxazole-4-carboxamide Hydrochloride]		18.1	inhibition at 0.3 mg/kg (5-HT3 receptors): 83%
CN1[C@@H]2CCC[C@H]1C[C@@H](NC(=O)c1cccc3oc(Nc4ccccc4)nc13)C2 [Example 5, Endo-N-(9-Methyl-9-azabicyclo[3.3.1]non-3-yl)-2-(phenylamino)benzoxazole-4-carboxamide Hydrochloride]		6.25	
COCCCNc1nc2c(C(=O)NC3CC4CCCC(C3)N4C)cccc2o1 (stereo not drawn) [Example 39, Endo-N-(9-Methyl-9-azabicyclo[3.3.1]nonan-3-yl)-2-(3-methoxypropylamino)benzoxazole-4-carboxamide Hydrochloride]		13.2	
C[C@H]1CN(Cc2ccccc2)C(=O)[C@H](C)N1c1nc2c(C(=O)N[C@@H]3CN4CCC3CC4)cccc2o1 [Example 142, (S)—N-(quinuclidine-8-yl) 2-((2S,6S)-4-benzyl-2,6-dimethyl-3-oxopiperazine-1-yl)benzoxazole-4-carboxamide Hydrochloride]		11.5	
CN1[C@@H]2CCC[C@H]1C[C@@H](NC(=O)c1cc(F)cc3oc(N)nc13)C2 [Example 121, Endo-2-amino-6-fluoro-N-(9-Methyl-9-azabicyclo[3.3.1]nonan-3-yl)benzoxazole-4-carboxamide Hydrochloride]		9	

From patent US7863271B2, “2-aminobenzoxazole carboxamides as 5HT3 modulators” (Albany Molecular Research, Inc., priority 2006, dated 2011)
